According to publication PMC11882969 (Nature Communications, 2025):
Where “and” joins values, the source holds several entries; their conditions need not be identical. Equal values may be shown once. Read-outs that look alike come from different tables or passages of the source.

Target: hCB1 (Homo sapiens, UniProt P21554)
Experiment: bioSensAll ebBRET signaling profiling, hCB1
Type: cell-based
Parameters: host or cells: HEK293SL cells, transient PEI transfection
Conditions: for Gi1 hCB1 response: Gi1 biosensor; for Gi1 hCB1 / GoB hCB1: single replicate values, FigS6a; for Emax [95% CI]: normalized to CP-55,940; for EC50: read-out: EC50 [95% CI]
[1] = Log [Compound] (M) -13, individual replicate values

Sequence of hCB1 (P21554 whole entry): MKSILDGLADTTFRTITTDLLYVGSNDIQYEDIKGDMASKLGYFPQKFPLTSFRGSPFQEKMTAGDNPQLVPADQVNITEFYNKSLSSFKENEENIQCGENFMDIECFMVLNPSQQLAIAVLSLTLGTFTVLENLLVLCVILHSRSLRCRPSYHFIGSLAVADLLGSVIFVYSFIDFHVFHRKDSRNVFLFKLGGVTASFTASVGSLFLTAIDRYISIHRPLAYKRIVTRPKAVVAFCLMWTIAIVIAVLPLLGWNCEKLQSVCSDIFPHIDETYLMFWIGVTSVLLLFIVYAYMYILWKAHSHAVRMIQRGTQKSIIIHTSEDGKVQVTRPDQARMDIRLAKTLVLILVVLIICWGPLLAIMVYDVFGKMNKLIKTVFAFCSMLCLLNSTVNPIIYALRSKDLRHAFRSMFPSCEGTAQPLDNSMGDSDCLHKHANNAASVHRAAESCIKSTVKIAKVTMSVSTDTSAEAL

Cc1cc(C(=O)N2CC3(CCC3)[C@H]2[C@@H]2CCCO2)nn1-c1cccc(C(F)(F)F)c1 [‘5490]
Gi1 hCB1 response (Log [Compound] (M) -4.22186): 126.936
Gi1 hCB1 response (Log [Compound] (M) -4.63927): 115.566
Gi1 hCB1 response (Log [Compound] (M) -5.47381): 67.3119
Gi1 hCB1 response (Log [Compound] (M) -5.89285): 63.8428
Gi1 hCB1 response (Log [Compound] (M) -6.31878): 33.6054
Gi1 hCB1 response (Log [Compound] (M) -6.72585): 15.275
Gi1 hCB1 response (Log [Compound] (M) -7.14267): 11.8954
Gi1 hCB1 response (Log [Compound] (M) -7.55284): 0.9509
Gi1 hCB1 response (Log [Compound] (M) -8): 4.733
Gi1 hCB1 response (Log [Compound] (M) -8.22186): -9.009
Gi1 hCB1 response (Log [Compound] (M) -8.39794): 1.018
Gi1 hCB1 response (Log [Compound] (M) -8.68787): -1.578
Gi1 hCB1 response (Log [Compound] (M) -9.15521): -18.3419
Gi1 hCB1 response (Log [Compound] (M) -9.61989): 1.018
Gi1 hCB1 response (Log [Compound] (M) -10.0969): 0.1452
Gi1 hCB1 response (Log [Compound] (M) -10.5529): 4.89
Gi1 hCB1 response (Log [Compound] (M) -11.0177): 13.5964
Gi1 hCB1 response (Log [Compound] (M) -11.4949): -2.608
Gi1 hCB1 response (Log [Compound] (M) -11.9208): 1.712
Gi1 hCB1 response (Log [Compound] (M) -12.3979): -1.959
Gi1 hCB1 response (Log [Compound] (M) -12.8861): -5.584
Gi1 hCB1 response [1]: 3.39 and 3.458
Gi1 hCB1 (Log [Compound] (M) -4.22186): 94.6851
GoB hCB1 (Log [Compound] (M) -4.22186): 96.1825
Gi1 hCB1 (Log [Compound] (M) -4.63927): 84.6644
GoB hCB1 (Log [Compound] (M) -4.63927): 79.6378
Gi1 hCB1 (Log [Compound] (M) -5.05788): 72.2386
GoB hCB1 (Log [Compound] (M) -5.05788): 59.1548
Gi1 hCB1 (Log [Compound] (M) -5.47381): 56.452
GoB hCB1 (Log [Compound] (M) -5.47381): 52.9325
Gi1 hCB1 (Log [Compound] (M) -5.89285): 36.6417
GoB hCB1 (Log [Compound] (M) -5.89285): 40.0205
Gi1 hCB1 (Log [Compound] (M) -6.31878): 21.1018
GoB hCB1 (Log [Compound] (M) -6.31878): 23.8534
Gi1 hCB1 (Log [Compound] (M) -6.72585): 10.5569
GoB hCB1 (Log [Compound] (M) -6.72585): 12.0564
Gi1 hCB1 (Log [Compound] (M) -7.14267): 5.469
GoB hCB1 (Log [Compound] (M) -7.14267): 9.719
Gi1 hCB1 (Log [Compound] (M) -7.55284): 7.104
GoB hCB1 (Log [Compound] (M) -7.55284): 4.971
Gi1 hCB1 (Log [Compound] (M) -8): 4.236
GoB hCB1 (Log [Compound] (M) -8): 4.953
Gi1 hCB1 (Log [Compound] (M) -8.22186): 2.062
GoB hCB1 (Log [Compound] (M) -8.22186): 0.1334
Gi1 hCB1 (Log [Compound] (M) -8.39794): 3.018
GoB hCB1 (Log [Compound] (M) -8.39794): 6.805
Gi1 hCB1 (Log [Compound] (M) -8.68787): 2.71
GoB hCB1 (Log [Compound] (M) -8.68787): -2.061
Gi1 hCB1 (Log [Compound] (M) -9.15521): 2.078
GoB hCB1 (Log [Compound] (M) -9.15521): 0.565
Gi1 hCB1 (Log [Compound] (M) -9.61989): 1.014
GoB hCB1 (Log [Compound] (M) -9.61989): 0.7988
Gi1 hCB1 (Log [Compound] (M) -10.0969): 3.712
GoB hCB1 (Log [Compound] (M) -10.0969): 2.4173
Gi1 hCB1 (Log [Compound] (M) -10.5529): 2.602
GoB hCB1 (Log [Compound] (M) -10.5529): 1.752
Gi1 hCB1 (Log [Compound] (M) -11.0177): 1.5536
GoB hCB1 (Log [Compound] (M) -11.0177): 4.395
Gi1 hCB1 (Log [Compound] (M) -11.4949): 3.327
GoB hCB1 (Log [Compound] (M) -11.4949): 4.324
Gi1 hCB1 (Log [Compound] (M) -11.9208): 2.772
GoB hCB1 (Log [Compound] (M) -11.9208): 3.352
Gi1 hCB1 (Log [Compound] (M) -12.3979): 2.124
GoB hCB1 (Log [Compound] (M) -12.3979): 2.741
Gi1 hCB1 (Log [Compound] (M) -12.8861): 2.556
GoB hCB1 (Log [Compound] (M) -12.8861): 2.3094
Gi1 hCB1 (Log [Compound] (M) -13): 3.496 and 2.864
GoB hCB1 (Log [Compound] (M) -13): 2.327 and 3.748
pEC50 [95% CI] (hCB1 Gi1): 5.6 [5.5 – 5.6]
Emax [95% CI] (hCB1 Gi1): 98 [94 – 102]
pEC50 [95% CI] (hCB1 GoB): 5.2 [4.8 – 5.6]
Emax [95% CI] (hCB1 GoB): 118 [94 – 143]
pEC50 [95% CI] (hCB1 Gz): 5.6 [5.2 – 6.1]
EC50 (hCB1 Gi1): 2.8 µM
EC50 (hCB1 GoB): 6.73 µM
EC50 (hCB1 Gz): 2.47 µM

Cc1cc(C(=O)N2CC3(CCC3)[C@H]2[C@H]2CCCO2)nn1-c1cccc(C(F)(F)F)c1 [‘1651]
Gi1 hCB1 response (Log [Compound] (M) -4.22186): 137.59
Gi1 hCB1 response (Log [Compound] (M) -4.63927): 96.9225
Gi1 hCB1 response (Log [Compound] (M) -5.47381): 59.4112
Gi1 hCB1 response (Log [Compound] (M) -5.89285): 34.5455
Gi1 hCB1 response (Log [Compound] (M) -6.31878): 22.4595
Gi1 hCB1 response (Log [Compound] (M) -6.72585): 13.9098
Gi1 hCB1 response (Log [Compound] (M) -7.14267): 3.39
Gi1 hCB1 response (Log [Compound] (M) -7.55284): 4.644
Gi1 hCB1 response (Log [Compound] (M) -8): -4.488
Gi1 hCB1 response (Log [Compound] (M) -8.22186): -3.346
Gi1 hCB1 response (Log [Compound] (M) -8.39794): -8.628
Gi1 hCB1 response (Log [Compound] (M) -8.68787): -2.138
Gi1 hCB1 response (Log [Compound] (M) -9.15521): 13.7307
Gi1 hCB1 response (Log [Compound] (M) -9.61989): 0.5704
Gi1 hCB1 response (Log [Compound] (M) -10.0969): -10.7993
Gi1 hCB1 response (Log [Compound] (M) -10.5529): 1.622
Gi1 hCB1 response (Log [Compound] (M) -11.0177): 3.525
Gi1 hCB1 response (Log [Compound] (M) -11.4949): -1.466
Gi1 hCB1 response (Log [Compound] (M) -11.9208): -11.3141
Gi1 hCB1 response (Log [Compound] (M) -12.3979): -0.1682
Gi1 hCB1 response (Log [Compound] (M) -12.8861): 6.054
Gi1 hCB1 response [1]: -5.092 and 7.285
Gi1 hCB1 (Log [Compound] (M) -4.22186): 86.9769
GoB hCB1 (Log [Compound] (M) -4.22186): 103.232
Gi1 hCB1 (Log [Compound] (M) -4.63927): 76.9098
GoB hCB1 (Log [Compound] (M) -4.63927): 73.1818
Gi1 hCB1 (Log [Compound] (M) -5.05788): 64.2374
GoB hCB1 (Log [Compound] (M) -5.05788): 61.4566
Gi1 hCB1 (Log [Compound] (M) -5.47381): 51.5496
GoB hCB1 (Log [Compound] (M) -5.47381): 47.4476
Gi1 hCB1 (Log [Compound] (M) -5.89285): 27.4072
GoB hCB1 (Log [Compound] (M) -5.89285): 30.9928
Gi1 hCB1 (Log [Compound] (M) -6.31878): 15.521
GoB hCB1 (Log [Compound] (M) -6.31878): 20.7963
Gi1 hCB1 (Log [Compound] (M) -6.72585): 7.211
GoB hCB1 (Log [Compound] (M) -6.72585): 12.2902
Gi1 hCB1 (Log [Compound] (M) -7.14267): 2.849
GoB hCB1 (Log [Compound] (M) -7.14267): 6.553
Gi1 hCB1 (Log [Compound] (M) -7.55284): 1.862
GoB hCB1 (Log [Compound] (M) -7.55284): 3.478
Gi1 hCB1 (Log [Compound] (M) -8): 1.7386
GoB hCB1 (Log [Compound] (M) -8): 4.539
Gi1 hCB1 (Log [Compound] (M) -8.22186): 1.384
GoB hCB1 (Log [Compound] (M) -8.22186): -0.5679
Gi1 hCB1 (Log [Compound] (M) -8.39794): 3.142
GoB hCB1 (Log [Compound] (M) -8.39794): 1.554
Gi1 hCB1 (Log [Compound] (M) -8.68787): 2.895
GoB hCB1 (Log [Compound] (M) -8.68787): -1.036
Gi1 hCB1 (Log [Compound] (M) -9.15521): 0.4282
GoB hCB1 (Log [Compound] (M) -9.15521): -2.079
Gi1 hCB1 (Log [Compound] (M) -9.61989): 2.402
GoB hCB1 (Log [Compound] (M) -9.61989): 0.2413
Gi1 hCB1 (Log [Compound] (M) -10.0969): 1.754
GoB hCB1 (Log [Compound] (M) -10.0969): 3.298
Gi1 hCB1 (Log [Compound] (M) -10.5529): 4.329
GoB hCB1 (Log [Compound] (M) -10.5529): 1.32
Gi1 hCB1 (Log [Compound] (M) -11.0177): 1.137
GoB hCB1 (Log [Compound] (M) -11.0177): 2.867
Gi1 hCB1 (Log [Compound] (M) -11.4949): 1.492
GoB hCB1 (Log [Compound] (M) -11.4949): 0.4571
Gi1 hCB1 (Log [Compound] (M) -11.9208): 0.7057
GoB hCB1 (Log [Compound] (M) -11.9208): 3.784
Gi1 hCB1 (Log [Compound] (M) -12.3979): 3.419
GoB hCB1 (Log [Compound] (M) -12.3979): 6.338
Gi1 hCB1 (Log [Compound] (M) -12.8861): 4.113
GoB hCB1 (Log [Compound] (M) -12.8861): 5.3306
Gi1 hCB1 (Log [Compound] (M) -13): -0.9593 and 2.509
GoB hCB1 (Log [Compound] (M) -13): 4.899 and 2.867
pEC50 [95% CI] (hCB1 Gi1): 5.5 [5.4 – 5.6]
Emax [95% CI] (hCB1 Gi1): 89 [84 – 94]
pEC50 [95% CI] (hCB1 GoB): 4.7 [4.1 – 5.4]
Emax [95% CI] (hCB1 GoB): 152 [94 – 208]
EC50 (hCB1 Gi1): 3.03 µM
EC50 (hCB1 GoB): 19.8 µM
